Results published in ChEMBL document CHEMBL4007424, “Design and Synthesis of Enantiomerically Pure Decahydroquinoxalines as Potent and Selective κ-Opioid Receptor Agonists with Anti-Inflammatory Activity in Vivo” (J Med Chem, 2017).
Active and inactive are the calls of the source. The rule behind the calls is not given here.

Key:
Sus scrofa = species: Sus scrofa; test: Displacement of [3H]-(+)-MK 801 from PCP binding site of NMDA receptor in pig brain cortex membranes at 10 uM after 120 mins by solid scintillation counting; format: cell membranes
Mus musculus [1] = test: Antiinflammatory activity in tropically applied arachidonic acid-induced ear dermatitis ICR mouse model assessed as reduction in ear swelling administered 30 mins prior and 15 mins after arachidonic acid addition measured 60 mins post arachidonic acid challenge; format: functional
Mus musculus [2] = test: (§1) Antiinflammatory activity in oxazolone-induced delayed type hypersensitivity BALB/c mouse model assessed as ear thickness at 0.5 mg applied topically on ear administered 3 hrs prior to oxazolone challenge on day 7 to 12 post sensitization followed by re-administration of compound on day 13 to 18 without oxazolone challenge measured on day 9 to 15; format: functional
Mus musculus [3] = test: as §1, with “2.5” for “0.5”; format: functional
Mus musculus [4] = test: as §1, with “measured after” for “measured on”, “day 16” for “day 9 to 15”; format: functional
Mus musculus [5] = test: as §1, with “hyperplastic epidrmis” for “ear thickness”, “0.5 and 2.5” for “0.5”, “19 by H and E staining based assay” for “9 to 15”; format: functional
Mus musculus [6] = test: as §1, with “reduction in edema formation” for “ear thickness”, “0.5 and 2.5” for “0.5”, “19 by H and E staining based assay” for “9 to 15”; format: functional
Mus musculus [7] = test: as §1, with “assessed as effect on ear thickness” for “assessed as ear thickness”, “at 0.5 and 2.5 mg applied” for “at 0.5 mg applied”, “on day 19 by H and E staining based assay” for “on day 9 to 15”; format: functional
Mus musculus [8] = test: (§2) Antiinflammatory activity in oxazolone-induced delayed type hypersensitivity BALB/c mouse model assessed as effect on ear weight at 0.5 and 2.5 mg applied topically on ear administered 3 hrs prior to oxazolone challenge on day 7 to 12 post sensitization followed by re-administration of compound on day 13 to 18 without oxazolone challenge measured on day 19; format: functional
[9] = molecular target: Sigma non-opioid intracellular receptor 1 (Cavia porcellus) (UniProt Q60492); test: Displacement of [3H]-(+)-pentazocine from sigma1-type […] receptor in guinea pig cortex membranes at 1 uM after 120 mins by solid scintillation counting; format: cell membranes
Sequence of Sigma non-opioid intracellular receptor 1 (Cavia porcellus) (Q60492 whole entry): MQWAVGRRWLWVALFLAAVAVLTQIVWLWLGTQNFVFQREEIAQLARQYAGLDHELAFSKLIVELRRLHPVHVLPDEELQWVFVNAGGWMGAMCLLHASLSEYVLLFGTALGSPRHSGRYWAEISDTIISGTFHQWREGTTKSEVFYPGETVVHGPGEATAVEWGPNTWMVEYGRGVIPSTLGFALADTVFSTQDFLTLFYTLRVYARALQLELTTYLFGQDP

Rattus norvegicus [10] = species: Rattus norvegicus; test: Displacement of [3H]-DTG from sigma 2 receptor in rat liver membranes at 1 uM after 120 mins by scintillation counting; format: cell membranes; conditions: Membrane
[11] = molecular target: T1, Kappa-type opioid receptor (Homo sapiens, UniProt P41145); test: Agonist activity at recombinant human kappa-type opioid receptor expressed in HEK293 cells at 1 uM after 30 mins by [35S]GTPgammaS binding assay; format: functional, cell-based
T1 sequence (P41145 whole entry): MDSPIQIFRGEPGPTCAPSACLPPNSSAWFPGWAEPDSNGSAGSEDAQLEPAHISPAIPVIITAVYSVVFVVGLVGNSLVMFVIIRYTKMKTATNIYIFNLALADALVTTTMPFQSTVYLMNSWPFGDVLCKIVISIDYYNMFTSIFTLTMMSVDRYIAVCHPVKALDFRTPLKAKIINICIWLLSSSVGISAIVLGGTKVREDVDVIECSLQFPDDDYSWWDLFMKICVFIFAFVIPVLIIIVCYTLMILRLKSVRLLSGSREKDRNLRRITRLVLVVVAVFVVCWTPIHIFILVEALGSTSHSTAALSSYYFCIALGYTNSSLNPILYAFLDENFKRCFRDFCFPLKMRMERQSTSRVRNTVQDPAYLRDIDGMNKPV

Mus musculus [12] = test: as §2, with “reduction in” for “effect on”, “at” for “at 0.5 and”; format: functional
Mus musculus [13] = test: Antiinflammatory activity in oxazolone-induced delayed type hypersensitivity BALB/c mouse model assessed as reduction in ear swelling at 2.5 mg applied topically on ear administered 3 hrs prior to oxazolone challenge on day 7 to 12 post sensitization followed by re-administration of compound on day 13 to 18 without oxazolone challenge measured daily prior to treatment from day 7 to 19; format: functional
Mus musculus [14] = test: (§3) Antiinflammatory activity in tropically administered oxazolone-induced delayed type hypersensitivity BALB/c mouse model assessed as effect on ear weight administered 3 hrs prior to oxazolone challenge on day 7 to 12 post sensitization followed by re-administration of compound on day 13 to 18 without oxazolone challenge measured on day 19; format: functional
Mus musculus [15] = test: as §3, with “reduction in” for “effect on”, “thickness” for “weight”; format: functional
Mus musculus [16] = test: as §3, with “reduction in T-lymphocytes in” for “effect on”, “ear” for “ear weight”, “19 by DAPI-staining based fluorescence microscopic analysis” for “19”; format: functional, cell-based
Mus musculus [17] = test: as §2, with “reduction in” for “effect on”, “0.1 to” for “0.5 and”; format: functional
Mus musculus [18] = test: Antiinflammatory activity in oxazolone-induced delayed type hypersensitivity BALB/c mouse model assessed as effect on histology changes at 0.1 to 2.5 mg applied topically on ear administered 3 hrs prior to oxazolone challenge on day 7 to 12 post sensitization followed by re-administration of compound on day 13 to 18 without oxazolone challenge measured daily prior to treatment from day 7 to 19 by H and E staining based assay; format: functional
Mus musculus [19] = test: (§4) Antiinflammatory activity in oxazolone-induced delayed type hypersensitivity BALB/c mouse model assessed as reduction in ear thickness at 0.1 to 2.5 mg applied topically on ear administered 3 hrs prior to oxazolone challenge on day 7 to 12 post sensitization followed by re-administration of compound on day 13 to 18 without oxazolone challenge measured on day 19 by H and E based staining; format: functional
Mus musculus [20] = test: as §4, with “inflammatory infiltrate” for “ear thickness”; format: functional
[21] = molecular target: Kappa-type opioid receptor (Cavia porcellus, UniProt P41144); test: Displacement of [3H]U-69,593 from kappa-type opioid receptor in guinea pig brain membranes after 120 mins by solid scintillation counting; format: cell membranes, Membrane
Sequence of Kappa-type opioid receptor (Cavia porcellus, UniProt P41144) (P41144 whole entry): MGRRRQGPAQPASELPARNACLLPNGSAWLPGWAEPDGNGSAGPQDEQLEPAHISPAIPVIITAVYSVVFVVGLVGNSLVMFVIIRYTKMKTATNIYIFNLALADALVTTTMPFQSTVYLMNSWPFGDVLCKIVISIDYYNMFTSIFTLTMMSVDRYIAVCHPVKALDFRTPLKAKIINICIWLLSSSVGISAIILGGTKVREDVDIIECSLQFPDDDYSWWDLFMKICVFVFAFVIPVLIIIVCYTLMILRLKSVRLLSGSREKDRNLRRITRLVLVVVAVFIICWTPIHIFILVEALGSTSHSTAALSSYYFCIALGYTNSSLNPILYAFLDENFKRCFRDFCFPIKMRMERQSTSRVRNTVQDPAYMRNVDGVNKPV

Mu-type opioid receptor = Mu-type opioid receptor (Cavia porcellus, UniProt P97266); test: Displacement of [3H]DAMGO from mu-type opioid receptor in guinea pig brain membranes after 120 mins by solid scintillation counting; format: cell membranes, Membrane
Sequence of Mu-type opioid receptor (P97266 whole entry): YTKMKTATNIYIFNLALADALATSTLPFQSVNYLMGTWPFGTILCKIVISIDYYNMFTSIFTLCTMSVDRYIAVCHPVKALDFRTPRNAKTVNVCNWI

[22] = Displacement of [3H]DPDPE from delta-type opioid receptor in guinea pig brain membranes after 120 mins by solid scintillation counting; format: cell membranes, Cavia porcellus, Membrane
[23] = Displacement of [3H]-(+)-MK 801 from PCP binding site of NMDA receptor in pig brain cortex membranes after 120 mins by solid scintillation counting; format: cell membranes, Sus scrofa
[24] = molecular target: T1, Kappa-type opioid receptor; test: Agonist activity at recombinant human kappa-type opioid receptor expressed in HEK293 cells after 30 mins by [35S]GTPgammaS binding assay; format: functional, cell-based
[25] = Plasma concentration in Wistar Han rat at 1 mg/kg, iv measured 0.25 hrs post compound administration; format: ADME, organism-based
[26] = Plasma concentration in Wistar Han rat at 5 mg/kg, iv measured 0.25 hrs post compound administration; format: ADME, organism-based
[27] = Plasma concentration in Wistar Han rat at 1 mg/kg, iv measured 1 hr post compound administration; format: ADME, organism-based
[28] = Plasma concentration in Wistar Han rat at 5 mg/kg, iv measured 1 hr post compound administration; format: ADME, organism-based
Brain = test: Drug level in Wistar Han rat brain at 1 mg/kg, iv measured 1 hr post compound administration; format: ADME, organism-based; conditions: in vivo, 1 h, BLD = below limit of detection
[29] = Drug level in Wistar Han rat brain at 5 mg/kg, iv measured 1 hr post compound administration; format: ADME, organism-based; conditions: read-out: Drug uptake
[30] = Ratio of drug level in brain to plasma in Wistar Han rat at 5 mg/kg, iv after 1 hr; format: ADME, organism-based; conditions: read-out: BPR
Rattus norvegicus [31] = test: Toxicity in Wistar Han rat assessed as clinical signs changes at 1 mg/kg, iv after 1 hr; format: organism-based; conditions: in vivo
Rattus norvegicus [32] = test: Toxicity in Wistar Han rat assessed as assessed as clinical signs changes at 5 mg/kg, iv after 1 hr; format: organism-based; conditions: in vivo

COC(=O)N1CCN(C(=O)Cc2ccc(Cl)c(Cl)c2)[C@@H]2[C@@H](N3CCCC3)CCC[C@@H]21
inhibition (Sus scrofa): 2%
Activity (Mus musculus [1]): Dose-dependent effect
Activity (Mus musculus [2]): inactive
Activity (Mus musculus [3]): Active
Activity (Mus musculus [4]): inactive
Activity (Mus musculus [5]): Active
Activity (Mus musculus [6]): Active
Activity (Mus musculus [7]): inactive
Activity (Mus musculus [8]): inactive

CS(=O)(=O)N1CCN(C(=O)Cc2ccc(Cl)c(Cl)c2)[C@@H]2[C@@H](N3CC[C@H](O)C3)CCC[C@@H]21
inhibition [9]: 0%
inhibition (Rattus norvegicus [10]): 15%
inhibition (Sus scrofa): 0%
Activity [11]: 106%
Activity (Mus musculus [12]): Active
Activity (Mus musculus [13]): Active
Activity (Mus musculus [14]): Dose-dependent effect
Activity (Mus musculus [15]): Dose-dependent effect
Activity (Mus musculus [16]): Dose-dependent effect
Activity (Mus musculus [17]): Dose-dependent effect
Activity (Mus musculus [18]): Active
Activity (Mus musculus [19]): Dose-dependent effect
Activity (Mus musculus [20]): Dose-dependent effect

CN(C)S(=O)(=O)N1CCN(C(=O)Cc2ccc(Cl)c(Cl)c2)[C@@H]2[C@@H](N3CCCC3)CCC[C@@H]21
Ki [21]: 0.95 nM
Ki (Mu-type opioid receptor): 21 nM
Ki [22]: 11 nM
Ki [23]: 2500 nM
EC50 [24]: 2.2 nM

COC(=O)N1CCN(C(=O)Cc2ccc(Cl)c(Cl)c2)[C@@H]2[C@@H](N3CC[C@H](O)C3)CCC[C@@H]21.Cl
concentration at 0.25 h [25]: 599 ng/mL
concentration at 0.25 h [26]: 1440 ng/mL
concentration at 1 h [27]: 128 ng/mL
concentration at 1 h [28]: 669 ng/mL
Drug uptake (Brain): Bld
concentration at 1 h [29]: 74.1 ng/g
Kp at 1 h [30]: 0.11
Activity (Rattus norvegicus [31]): Non-Toxic
Activity (Rattus norvegicus [32]): Non-Toxic
